From PMC2941209 (Synapse (New York, N.Y.), 2010)
“And” between values parts separate entries of the source, which are not always exact repeats. Equal entries are not always repeated. Structures can show the parent of a compound that is named as a salt.

Columns and labels:
SERT [1] = biological target: T1, SERT (Rattus norvegicus, UniProt P31652); test: [3H]5-HT release assay; conditions: for Emax [3H]5-HT release, 15 μM EG-1-149 / Emax [3H]5-HT release, NO EG-1-149: ±SD (n=6); for EMAX substrate-induced [3H]5-HT release, CONTROL: substrate alone (control), 100% = release by 100 μM tyramine, ±SD
DAT = conditions: read-out: IC50 reuptake inhibition, DAT; ref Greiner et al., 2003; cited from earlier work
SERT [2] = biological target: T1, SERT; test: biochemical
SERT [3] = biological target: T1, SERT; test: [3H]5-HT uptake inhibition assay; assay type: biochemical
[4] = 1 μM test compound, substrate MDMA

T1 sequence (P31652 whole entry): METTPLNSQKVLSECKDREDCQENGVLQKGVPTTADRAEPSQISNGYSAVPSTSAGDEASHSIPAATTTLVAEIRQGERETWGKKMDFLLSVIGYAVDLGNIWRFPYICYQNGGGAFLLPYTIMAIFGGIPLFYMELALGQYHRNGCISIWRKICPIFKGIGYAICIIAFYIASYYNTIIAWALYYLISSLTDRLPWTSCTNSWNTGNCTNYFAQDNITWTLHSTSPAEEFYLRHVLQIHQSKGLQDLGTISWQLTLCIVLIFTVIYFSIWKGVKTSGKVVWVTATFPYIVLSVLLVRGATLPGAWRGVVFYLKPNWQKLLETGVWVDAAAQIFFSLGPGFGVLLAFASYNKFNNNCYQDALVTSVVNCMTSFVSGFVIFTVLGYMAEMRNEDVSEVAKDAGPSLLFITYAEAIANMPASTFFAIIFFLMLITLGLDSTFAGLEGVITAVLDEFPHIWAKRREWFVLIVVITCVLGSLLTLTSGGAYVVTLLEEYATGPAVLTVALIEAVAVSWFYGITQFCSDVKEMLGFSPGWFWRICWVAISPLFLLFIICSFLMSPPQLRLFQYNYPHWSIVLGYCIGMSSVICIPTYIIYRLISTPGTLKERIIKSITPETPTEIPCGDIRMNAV

Question: What does the source list for `CNC(C)Cc1ccc2c(c1)OCO2` (racemic) [(±)-MDMA]?
Answer: EC50 (SERT [1]): 88 ± 10 nM; Emax (SERT [1]; read-out: EMAX substrate-induced [3H]5-HT release, CONTROL): 105%

Question: Which results are given for `CC(N)Cc1cccc(C(F)(F)F)c1` (single isomer, unassigned; (+)) [(+)-Norfenfluramine]?
Answer: Emax [3H]5-HT release, 15 μM EG-1-149 (SERT [1]; release time 5 min): 81 ± 3 %I; Emax [3H]5-HT release, 15 μM EG-1-149 (SERT [1]; release time 5 min, listed as (+)-norfenfluramine): 81±3 %I; Emax [3H]5-HT release, NO EG-1-149 (SERT [1]; release time 5 min): 114 ± 8 %I; Emax [3H]5-HT release, 15 μM EG-1-149 (SERT [1]; release time 15 min): 97 ± 4 %I; Emax [3H]5-HT release, 15 μM EG-1-149 (SERT [1]; release time 15 min, listed as (+)-norfenfluramine): 97±4 %I; Emax [3H]5-HT release, NO EG-1-149 (SERT [1]; release time 15 min): 111 ± 5 %I; EMAX substrate-induced [3H]5-HT release, CONTROL (SERT [1]): 113±6%

Question: Which “EMAX substrate-induced [3H]5-HT release, CONTROL” value (SERT [1]) does the source give for `NCCc1c[nH]c2ccc(O)cc12` [5-HT] here?
Answer: 85±1%

Question: Which results are given for `Brc1ccc(CN2CCC(CCOC(c3ccccc3)c3ccccc3)CC2)cc1` [EG-1-149, 4-(2-(Benzhydryloxy)ethyl)-1-(4-bromobenzyl)piperidine oxalate]?
Answer: IC50 (DAT): 5.1 ± 0.4 nM; Ki (SERT [2]): 713 nM and 1180 nM and 4820 nM and 2900 nM and 1770 nM; IC50 (SERT [3]): 1.76 µM

Question: What does the source list for `Cc1cc(NC(=O)Nc2ccc3c(ccn3C)c2)sn1` [SB204741, N-(1-Methyl-1H-indol-5-yl)-N′-(3-methylisothiazol-5-yl)urea]?
Answer: effect on EMAX of MDMA-induced [3H]5-HT release (SERT [1]; [4]): without altering the EMAX values; rightward shift of the MDMA dose-response curve ([3H]5-HT release) (SERT [1]; [4]): 3–4 fold; IC50 (SERT [3]): 38 µM

Question: For `Clc1cccc(N2CCNCC2)c1` [mCPP, meta-chlorophenylpiperazine], which “EMAX substrate-induced [3H]5-HT release, CONTROL” value (SERT [1]) is on record?
Answer: 94±3% and 91±1%
